Reference: the NIST ThermoML archive (doi:10.1016/j.jct.2016.12.029)

Test: xn = mol fraction of the nth substance listed
Settings: Gas, Buoyancy - hydrostatic balance with magnetic suspension - one sinker

C=C(F)C(F)(F)F [2,3,3,3-tetrafluoro-1-propene] + CCC
Settings | mass density [kg/m3]
285.37 K, 311 kPa, x1 = 0.8116 | 14.287
285.38 K, 402.5 kPa, x1 = 0.0906 | 9.29
285.38 K, 413.6 kPa, x1 = 0.8116 | 19.58
285.39 K, 494.1 kPa, x1 = 0.0906 | 11.653
290.25 K, 583.7 kPa, x1 = 0.583 | 23.524
290.38 K, 102.2 kPa, x1 = 1 | 4.937
290.39 K, 184.5 kPa, x1 = 1 | 9.113
290.4 K, 203.9 kPa, x1 = 0.583 | 7.494
290.4 K, 308.8 kPa, x1 = 1 | 15.792
290.4 K, 421.2 kPa, x1 = 1 | 22.298
290.41 K, 103.5 kPa, x1 = 0.583 | 3.727
290.41 K, 300.6 kPa, x1 = 0.583 | 11.287
290.41 K, 403.8 kPa, x1 = 0.583 | 15.532
290.41 K, 496.6 kPa, x1 = 0.583 | 19.555
290.42 K, 102.2 kPa, x1 = 0.2546 | 2.673
290.42 K, 202.4 kPa, x1 = 0.2546 | 5.395
290.42 K, 297.9 kPa, x1 = 0.2546 | 8.09
290.42 K, 393.4 kPa, x1 = 0.2546 | 10.9
290.43 K, 490.8 kPa, x1 = 0.2546 | 13.893
290.44 K, 106.8 kPa, x1 = 0.8116 | 4.568
290.44 K, 199.7 kPa, x1 = 0.8116 | 8.728
290.44 K, 298.5 kPa, x1 = 0.8116 | 13.363
290.44 K, 586.4 kPa, x1 = 0.2546 | 16.977
290.46 K, 104.6 kPa, x1 = 0.0906 | 2.225
290.46 K, 208.6 kPa, x1 = 0.0906 | 4.52
290.46 K, 314.2 kPa, x1 = 0.0906 | 6.95
290.46 K, 380.2 kPa, x1 = 0.8116 | 17.392
290.46 K, 409.5 kPa, x1 = 0.0906 | 9.237
290.46 K, 465.4 kPa, x1 = 0.8116 | 21.81
290.46 K, 539.6 kPa, x1 = 0.0906 | 12.53
295.4 K, 101.7 kPa, x1 = 1 | 4.829
295.4 K, 196.9 kPa, x1 = 1 | 9.565
295.4 K, 400.6 kPa, x1 = 1 | 20.565
295.4 K, 600.7 kPa, x1 = 1 | 32.885
295.41 K, 305.3 kPa, x1 = 1 | 15.255
295.41 K, 510.2 kPa, x1 = 1 | 27.092
295.43 K, 213.4 kPa, x1 = 0.2546 | 5.607
295.44 K, 312 kPa, x1 = 0.2546 | 8.352
295.44 K, 420 kPa, x1 = 0.2546 | 11.485
295.44 K, 526.9 kPa, x1 = 0.2546 | 14.734
295.45 K, 511.2 kPa, x1 = 0.583 | 19.692
295.45 K, 638.2 kPa, x1 = 0.2546 | 18.298
295.46 K, 105.6 kPa, x1 = 0.583 | 3.727
295.46 K, 202.1 kPa, x1 = 0.583 | 7.273
295.46 K, 304.8 kPa, x1 = 0.583 | 11.205
295.46 K, 309.4 kPa, x1 = 0.0906 | 6.711
295.46 K, 410.8 kPa, x1 = 0.583 | 15.457
295.46 K, 411.3 kPa, x1 = 0.0906 | 9.102
295.47 K, 104.2 kPa, x1 = 0.0906 | 2.174
295.47 K, 209.6 kPa, x1 = 0.0906 | 4.463
295.47 K, 517.9 kPa, x1 = 0.0906 | 11.713
295.47 K, 624.6 kPa, x1 = 0.583 | 24.759
295.48 K, 105.6 kPa, x1 = 0.8116 | 4.43
295.48 K, 198.1 kPa, x1 = 0.8116 | 8.481
295.48 K, 304 kPa, x1 = 0.8116 | 13.338
295.48 K, 403.2 kPa, x1 = 0.8116 | 18.133
295.48 K, 629.5 kPa, x1 = 0.0906 | 14.594
295.5 K, 514.3 kPa, x1 = 0.8116 | 23.825
300.2 K, 668.8 kPa, x1 = 1 | 36.434
300.21 K, 108 kPa, x1 = 1 | 5.039
300.21 K, 218.9 kPa, x1 = 1 | 10.489
300.21 K, 324 kPa, x1 = 1 | 15.933
300.21 K, 439.4 kPa, x1 = 1 | 22.291
300.21 K, 545.8 kPa, x1 = 1 | 28.564
300.21 K, 702.5 kPa, x1 = 0.0906 | 16.204
300.23 K, 569.7 kPa, x1 = 0.8116 | 26.154
300.24 K, 599.9 kPa, x1 = 0.0906 | 13.531
300.24 K, 701 kPa, x1 = 0.583 | 27.648
300.25 K, 190.5 kPa, x1 = 0.0906 | 3.98
300.25 K, 392.5 kPa, x1 = 0.8116 | 17.228
300.25 K, 396.6 kPa, x1 = 0.0906 | 8.595
300.25 K, 489.8 kPa, x1 = 0.8116 | 22.015
300.25 K, 506.5 kPa, x1 = 0.0906 | 11.208
300.25 K, 600.3 kPa, x1 = 0.583 | 23.086
300.26 K, 102.6 kPa, x1 = 0.583 | 3.557
300.26 K, 104.5 kPa, x1 = 0.0906 | 2.152
300.26 K, 106.3 kPa, x1 = 0.8116 | 4.378
300.26 K, 200.3 kPa, x1 = 0.583 | 7.077
300.26 K, 298.9 kPa, x1 = 0.583 | 10.761
300.26 K, 300 kPa, x1 = 0.0906 | 6.389
300.26 K, 301.1 kPa, x1 = 0.8116 | 12.94
300.26 K, 506.5 kPa, x1 = 0.583 | 19.062
300.27 K, 198.3 kPa, x1 = 0.8116 | 8.334
300.27 K, 400.3 kPa, x1 = 0.583 | 14.716
